This is an account of results in patent US20200187502A1, “MICROBIOCIDAL OXADIAZOLE DERIVATIVES” (SYNGENTA PARTICIPATIONS AG, priority 2017, published 2020).

Series [1] has as its system Puccinia recondita f. Sp. Tritici. Description: Fungicidal activity, wheat leaf disc preventative (brown rust). It counts as in vivo. Particulars: foliar, 200 ppm in the applied formulation, wheat leaf segments cv. Kanzler, compared to untreated control, 7 to 9 days after application, read-out: disease control. In outline: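 Preventative leaf-segment test: spray application of diluted formulated compound on wheat cv. Kanzler, spore inoculation after 1 day. Percent control relative to untreated segments rated 7 to 9 days post-application, with incubation at 19° C, 75% relative humidity, 12 h photoperiod.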

Series [2] shares this test system. Description: Fungicidal activity, wheat leaf disc curative (brown rust). It counts as in vivo. To be noted: foliar, 200 ppm in the applied formulation, wheat leaf segments cv. Kanzler, curative (applied 1 day after inoculation), compared to untreated control, 6 to 8 days after application, read-out: disease control. The gist of the method: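 Curative leaf-segment test, cv. Kanzler: spore inoculation, dark storage 19° C/75% RH, compound spray 1 day post-inoculation. Then 12 h light/12 h dark, 19° C, 75% RH. Read-out: % disease control vs untreated check, 6–8 d after application.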

Another series concerns Phakopsora pachyrhizi. Description: Fungicidal activity, soybean leaf disc preventative (Asian soybean rust). Format: in vivo. To be noted: foliar, 200 ppm in the applied formulation, soybean leaf disks, compared to untreated control, 12 to 14 days after application, read-out: disease control. The gist of the method:
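Read-out is percent disease control relative to untreated check discs, assessed once untreated discs show adequate disease, 12 to 14 days after application. Compounds, tested at 200 ppm in the applied formulation, are sprayed onto soybean leaf discs one day before inoculation with a spore suspension.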

For series [3], the system named is Glomerella lacenarium (Colletotrichum lacenarium). The experiment in a line: Fungicidal activity, liquid culture, cucumber preventative (anthracnose). To be noted: 20 ppm in the applied formulation, liquid culture in PDB, inhibition of growth measured photometrically 3 to 4 days after application, compared to untreated control, read-out: disease control. Format: cell-based. The gist of the method:
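PDB broth seeded with cryo-stored conidia, added onto compound (DMSO solution) in 96-well plates; 24° C.; photometric growth read at 3–4 d post-application; % inhibition vs untreated check.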

Each structure is given as a SMILES string.

On to `CNC(=O)N(Cc1ccc(-c2noc(C(F)(F)F)n2)s1)OC` [Compound 1.2, 1-methoxy-3-methyl-1-[[5-[5-(trifluoromethyl)-1,2,4-oxadiazol-3-yl]-2-thienyl]methyl]urea], for which the melting point (commonly the temperature of the solid-liquid transition) lay in the range of 93.2 to 95.7 °C. The pest or weed control at 200 ppm in series [1] was at least 80%. For the same compound, the pest or weed control at 200 ppm in series [2] was at least 80%. Besides, the pest or weed control at 200 ppm in the series on Phakopsora pachyrhizi is at least 80%. Moreover, the inhibition of growth at 20 ppm in series [3] is at least 80%.

In the case of `CON(Cc1ccc(-c2noc(C(F)(F)F)n2)s1)C(=O)NC1CC1` [Compound 1.27, 3-cyclopropyl-1-methoxy-1-[[5-[5-(trifluoromethyl)-1,2,4-oxadiazol-3-yl]-2-thienyl]methyl]urea], the melting point is 82.2 to 83.8 °C. In series [1], the pest or weed control at 200 ppm is at least 80%. Moreover, the pest or weed control at 200 ppm in series [2] was at least 80%. The pest or weed control at 200 ppm in the series with Phakopsora pachyrhizi was at least 80%. For the same compound, the inhibition of growth at 20 ppm in series [3] was at least 80%.

As for `CCC(C)C(=O)NCc1ccc(-c2noc(C(F)(F)F)n2)s1` (stereo not shown) [Compound 2.7, 2-methyl-N-[[5-[5-(trifluoromethyl)-1,2,4-oxadiazol-3-yl]-2-thienyl]methyl]butanamide], the pest or weed control at 200 ppm (in series [1]; in series [2]; in the series with Phakopsora pachyrhizi) was at least 80% in each case. In addition, the inhibition of growth at 20 ppm in series [3] is at least 80%.

For `CNC(=O)N(Cc1ccc(-c2noc(C(F)(F)F)n2)s1)C(C)C` [Compound 4.13, 1-isopropyl-3-methyl-1-[[5-[5-(trifluoromethyl)-1,2,4-oxadiazol-3-yl]-2-thienyl]methyl]urea], the pest or weed control at 200 ppm (in series [1]; in series [2]; in the series with Phakopsora pachyrhizi) was at least 80% throughout. Further, in series [3], the inhibition of growth at 20 ppm is at least 80%.

With `O=C(NC1CC1)N(Cc1ccc(-c2noc(C(F)(F)F)n2)s1)C1CC1` [Compound 5.62, 1,3-dicyclopropyl-1-[[5-[5-(trifluoromethyl)-1,2,4-oxadiazol-3-yl]-2-thienyl]methyl]urea], the pest or weed control at 200 ppm (in series [1]; in series [2]; with Phakopsora pachyrhizi) was at least 80% throughout. For the same compound, the inhibition of growth at 20 ppm in series [3] is at least 80%.

Take `CN(Cc1ccc(-c2noc(C(F)(F)F)n2)s1)C(=O)C1CC1` [Compound 5.1, N-methyl-N-[[5-[5-(trifluoromethyl)-1,2,4-oxadiazol-3-yl]-2-thienyl]methyl]cyclopropanecarboxamide]: the pest or weed control at 200 ppm (in series [1]; in series [2]; in the series with Phakopsora pachyrhizi) was at least 80% each time. In addition, the inhibition of growth at 20 ppm in series [3] is at least 80%.

Turning to `CC(C)N(Cc1ccc(-c2noc(C(F)(F)F)n2)s1)C(=O)C1CC1` [Compound 5.5, N-isopropyl-N-[[5-[5-(trifluoromethyl)-1,2,4-oxadiazol-3-yl]-2-thienyl]methyl]cyclopropanecarboxamide], the pest or weed control at 200 ppm (in series [1]; in series [2]; with Phakopsora pachyrhizi) was at least 80% in each case. Moreover, in series [3], the inhibition of growth at 20 ppm was at least 80%.

As for `CN(CC#N)C(=O)N(C)Cc1ccc(-c2noc(C(F)(F)F)n2)s1` [Compound 4.76, 1-(cyanomethyl)-1,3-dimethyl-3-[[5-[5-(trifluoromethyl)-1,2,4-oxadiazol-3-yl]-2-thienyl]methyl]urea], the pest or weed control at 200 ppm (in series [1]; in series [2]; with Phakopsora pachyrhizi) was at least 80% each time. Further, the inhibition of growth at 20 ppm in series [3] was at least 80%.

As for `C=CCN(C)C(=O)N(Cc1ccc(-c2noc(C(F)(F)F)n2)s1)OC` [Compound 1.52, 1-allyl-3-methoxy-1-methyl-3-[[5-[5-(trifluoromethyl)-1,2,4-oxadiazol-3-yl]-2-thienyl]methyl]urea], the pest or weed control at 200 ppm (in series [1]; in series [2]; in the series with Phakopsora pachyrhizi) was at least 80% throughout. In addition, the inhibition of growth at 20 ppm in series [3] was at least 80%.

Regarding `C=CCN(C)C(=O)N(C)Cc1ccc(-c2noc(C(F)(F)F)n2)s1` [Compound 4.77, 1-allyl-1,3-dimethyl-3-[[5-(5-(trifluoromethyl)-1,2,4-oxadiazol-3-yl]-2-thienyl]methyl]urea], the pest or weed control at 200 ppm (in series [1]; in series [2]; with Phakopsora pachyrhizi) was at least 80% in each case. In series [3], the inhibition of growth at 20 ppm was at least 80%.

For the compound `CCN(Cc1ccc(-c2noc(C(F)(F)F)n2)s1)C(=O)C(C)C` [Compound 4.7, N-ethyl-2-methyl-N-[[5-[5-(trifluoromethyl)-1,2,4-oxadiazol-3-yl]-2-thienyl]methyl]propanamide], the pest or weed control at 200 ppm (in series [1]; in series [2]; in the series on Phakopsora pachyrhizi) was at least 80% throughout. For the same compound, the inhibition of growth at 20 ppm in series [3] was at least 80%.

Take `COCCCC(=O)N(Cc1ccc(-c2noc(C(F)(F)F)n2)s1)C1CC1` [Compound 4.58, N-cyclopropyl-4-methoxy-N-[[5-[5-(trifluoromethyl)-1,2,4-oxadiazol-3-yl]-2-thienyl]methyl]butanamide]: the pest or weed control at 200 ppm (in series [1]; in series [2]; in the series on Phakopsora pachyrhizi) was at least 80% throughout. For the same compound, the inhibition of growth at 20 ppm in series [3] is at least 80%.

As to `COCCS(=O)(=O)N(C)Cc1ccc(-c2noc(C(F)(F)F)n2)s1` [Compound 6.21, 2-methoxy-N-methyl-N-[[5-[5-(trifluoromethyl)-1,2,4-oxadiazol-3-yl]-2-thienyl]methyl]ethanesulfonamide], the pest or weed control at 200 ppm (in series [1]; in series [2]; with Phakopsora pachyrhizi) was at least 80% each time. Moreover, in series [3], the inhibition of growth at 20 ppm was at least 80%.

As to `CCN(Cc1ccc(-c2noc(C(F)(F)F)n2)s1)C(=O)NC1CC1` [Compound 5.3, 3-cyclopropyl-1-ethyl-1-[[5-[5-(trifluoromethyl)-1,2,4-oxadiazol-3-yl]-2-thienyl]methyl]urea], the pest or weed control at 200 ppm (in series [1]; in series [2]; in the series with Phakopsora pachyrhizi) was at least 80% each time. Further, the inhibition of growth at 20 ppm in series [3] is at least 80%.

For `CCC(C)C(=O)N(C)Cc1ccc(-c2noc(C(F)(F)F)n2)s1` (stereo not shown) [Compound 4.37, N,2-dimethyl-N-[[5-[5-(trifluoromethyl)-1,2,4-oxadiazol-3-yl]-2-thienyl]methyl]butanamide], the pest or weed control at 200 ppm (in series [1]; in series [2]; in the series on Phakopsora pachyrhizi) was at least 80% each time. For the same compound, the inhibition of growth at 20 ppm in series [3] is at least 80%.

`CON(Cc1ccc(-c2noc(C(F)(F)F)n2)s1)C(=O)CC(F)(F)F` [Compound 1.18, 3,3,3-trifluoro-N-methoxy-N-[[5-[5-(trifluoromethyl)-1,2,4-oxadiazol-3-yl]-2-thienyl]methyl]propanamide]: the pest or weed control at 200 ppm (in series [1]; in series [2]; with Phakopsora pachyrhizi) was at least 80% throughout. Also, the inhibition of growth at 20 ppm in series [3] is at least 80%.

In the case of `O=C(NCc1ccc(-c2noc(C(F)(F)F)n2)s1)C1CCC1` [Compound 3.4, N-[[5-[5-(trifluoromethyl)-1,2,4-oxadiazol-3-yl]-2-thienyl]methyl]cyclobutanecarboxamide], the pest or weed control at 200 ppm (in series [1]; in series [2]; with Phakopsora pachyrhizi) was at least 80% each time. The inhibition of growth at 20 ppm in series [3] is at least 80%.
